One assay deals with P2X-purinoceptor. The experiment in a line: P2X-receptor assay, endothelium-denuded mesenteric bed. Set-up: species or system guinea pig. To be noted: for P2X-R effect: variation of perfusion pressure: bolus 0.1-1000 pmol, denuded mesenteric bed precontracted with noradrenaline. On the procedure: (§1) Surgical Procedures. Dunkin-Hartley guinea pigs (300-350 g) of either sex were sacrificed by cerival dislocation according to the Canadian Council on Aminal Care. The guinea pig mesentery was prepared as described by Berthiaume et al (63). […] To isolate the mesenteric bed from the intestine, the mesentery was perfused (2 ml/min, for 5 min) via the mesenteric artery with a Krebs solution containing heparin (100 U/ml). The mesentery was then separated by cutting close to the intestine. A resting period of 60 min was then allowed during which the guinea pig mesenteric bed was perfused (2 ml/min) with a warmed (37° C.) and gassed Krebs solution (95% O2 and 5% CO2) containing indomethacin (5 μM), as described earlier. In all the assays, perfusion pressure was increased to obtain a flow rate of 6 ml min^−1. Response of mesenteric bed, precontracted with noradrenaline (200 μM) in 0.9% saline solution, to the different drugs, was measured with a pressure transducer (Statham, model P-23AC) and recorded on a Grass physiograph (model 79D).
P2X-receptor assays. Guinea pig mesenteric bed was denuded from its endothelium layer by using 20 mM of CHAPS in PBS (63). Briefly, the CHAPS solution was infused for 45 sec, followed by a resting period of 30 min. Finally a second 45 sec infusion of 20 mM CHAPS was carried out. Blood vessels were then precontracted as earlier described. The efficiency of the endothelium removal technique was assessed by an intra-arterial bolus injection of 100 pmol of NK-1 in PBS. Reactivity of the media layer was confirmed by bolus injection of 3 nmol of NaNP (sodium nitroprussiate) in PBS. […] Variation of perfusion pressure were measured. Between each injection of 8-BuS-ATP a resting period was allowed to allow the return of pressure to baseline (i.e. precontracted pressure).

The target in assay [1] is T1, NTPDase (Bos taurus, UniProt O18956).
T1 sequence (O18956 1-513): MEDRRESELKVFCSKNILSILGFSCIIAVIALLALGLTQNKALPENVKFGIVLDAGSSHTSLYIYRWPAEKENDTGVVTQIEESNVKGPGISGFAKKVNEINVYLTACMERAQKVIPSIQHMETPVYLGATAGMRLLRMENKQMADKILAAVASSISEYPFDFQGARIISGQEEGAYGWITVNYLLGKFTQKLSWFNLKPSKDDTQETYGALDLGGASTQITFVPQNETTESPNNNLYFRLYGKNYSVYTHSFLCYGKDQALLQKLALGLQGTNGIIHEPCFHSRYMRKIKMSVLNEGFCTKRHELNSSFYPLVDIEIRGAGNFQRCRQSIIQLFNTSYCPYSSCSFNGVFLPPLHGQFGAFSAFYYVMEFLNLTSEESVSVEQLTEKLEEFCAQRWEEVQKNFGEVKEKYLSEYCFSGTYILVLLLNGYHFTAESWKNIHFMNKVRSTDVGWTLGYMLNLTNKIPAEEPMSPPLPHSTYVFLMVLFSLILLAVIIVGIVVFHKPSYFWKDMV
As to the kind of experiment: Resistance to hydrolysis by NTPDase (malachite green phosphate release). Set-up: To reduce potential artifacts resulting from the solubilisation of NTPDase by detergents, a particulate fraction (prepared as described above) was used; from tissue; host or cells: bovine spleen particulate fraction. Type of assay: biochemical, bovine. To be noted: 100 μM analog, 37° C., 7 min, 1.9 μg protein. The protocol:
Isolation of particulate fractions. Experiments were carried out with a particulate fraction obtained from bovine spleen according to the method of Sévigny et al. (37). Briefly, bovine spleens were cut in small pieces and homogenized (15-20%) with a Polytron in Tris-saline buffer supplemented with SBTI and PMSF as protease inhibitors. After filtration with cheesecloth and centrifugation at 600 g the supernatant is centrifuged at 22,000 g for 90 min, and the resulting pellet is suspended in bicarbonate buffer and loaded on a sucrose cushion (40%) and centrifuged for two hours at 100,000 g. The fraction floating on the cushion is harvested in five volumes of bicarbonate buffer. The pellet is suspended in Tris buffer/glycerol 7.5% and kept at −20° C.
(§2) NTPDase assays. Enzyme activity was routinely measured by the release of inorganic phosphorus with the malachite green colorimetric assay (61). Resistance to hydrolysis was measured at 37° C. in 1 ml of the following incubation medium: 8 mM CaCl2, 5 mM tetramisole, 50 mM Tris base, 50 mM imidazole, buffered at pH 7.6, and 100 μM of either ATP or its analogs. […] In both cases the reaction was started by the addition of 1.9 μg of the enzyme preparation and stopped after 7 min with 250 μL of the malachite green reagent. […] Reactions were performed in the same incubation buffer, as previously described and were started by the addition of non-saturating ATP concentrations. Protein concentration was determined with the Bradford microplate assay using bovine serum albumin as a standard of reference (62).
To reduce potential artifacts resulting from the solubilisation of NTPDase by detergents, a particulate fraction (prepared as described above) was used. […] Also, possible alkaline phosphatase activity was inhibited by tetramisole added to the assays.

In assay [2] the target is T1, NTPDase. As to the kind of experiment: NTPDase inhibition, ATP as substrate (Dixon plots). Type of assay: biochemical, bovine. The protocol:
as §2, with “Isolation of particulate fractions. […] Briefly, bovine spleens were cut in small pieces and homogenized (15-20%) with a Polytron in Tris-saline buffer supplemented with SBTI and PMSF as protease inhibitors. After filtration with cheesecloth and centrifugation at 600 g the supernatant is centrifuged at 22,000 g for 90 min, and the resulting pellet is suspended in bicarbonate buffer and loaded on a sucrose cushion (40%) and centrifuged for two hours at 100,000 g. The fraction floating on the cushion is harvested in five volumes of bicarbonate buffer. […] NTPDase” for “NTPDase”, “(62). […]” for “(62).”

Another assay deals with rat astrocytes. The settings on record: cited from earlier work.
For another assay, the system named is P2Y1 receptor. The settings on record: cited from earlier work.
For a further assay, the system named is P2Y-purinoceptor. The experiment in a line: P2Y-receptor assay, intact mesenteric bed, ATP-induced vasodilation. Set-up: species or system guinea pig. The settings on record: 7 μM infusion, ATP 0.1-10000 pmol. The protocol:
as §1
P2Y-receptor assays. Intact mesenteric bed vessels were precontracted with noradrenaline (200 μM). […] A resting period between each ATP injection was allowed to return to baseline, as described above. Blood vessel reactivity was assessed by a bolus injection of 3 nmol of NaNP. Response of the endothelium layer was confirmed by injection of NK-1 (100 pmol).

Results on 7 molecules are retold here after US6617439B1, “C8-substituted purine nucleotide analogs” (Bar-Ilan University, priority 2000, dated 2003).

Entries after “also recorded” stand apart in the source; their conditions may differ.

With “[Star^9,Met(O2)^11]SP [NK-1, reference compound]”, the “vascular response (vasodilation) in denuded mesentery” value with P2X-purinoceptor (100 pmol, vessels precontracted with 200 μM noradrenaline) is on record as “significant response”.
With `Nc1ncnc2c1nc(Br)n2[C@@H]1O[C@H](COP(=O)(O)OP(=O)(O)OP(=O)(O)O)[C@@H](O)[C@H]1O` [8-Br-ATP, reference compound], the “hydrolysis by NTPDase / resistance to hydrolysis” value on NTPDase [1] is listed as “a level of hydrolysis”.
Regarding `Nc1ncnc2c1nc(SC1CCCCCC1)n2C1OC(COP(=O)(O)OP(=O)(O)OP(=O)(O)O)C(O)C1O` (centres unmarked) [6a, 8-(Thiocycloheptyl)-adenosine 5′-triphosphate], at NTPDase [1], the “hydrolysis by NTPDase / resistance to hydrolysis” value is recorded as “more resistant to hydrolysis; also recorded: resistant to hydrolysis”. At NTPDase [2], the “potency / affinity as NTPDase inhibitor, in words” value is “good inhibitors”. The “type of NTPDase inhibition” value at NTPDase [2] (Lineweaver-Burk / Dixon representation) is recorded as “mixed type inhibitors; also recorded: mixed types of inhibition”.
Regarding `CCCCOc1nc2c(N)ncnc2n1[C@@H]1O[C@H](COP(=O)(O)OP(=O)(O)OP(=O)(O)O)[C@@H](O)[C@H]1O` [compound 8, 8-BuO-ATP], on NTPDase [1], the “hydrolysis by NTPDase / resistance to hydrolysis” value is “a level of hydrolysis”.
For the molecule `CCCCSc1nc2c(N)ncnc2n1C1OC(COP(=O)(O)OP(=O)(O)OP(=O)(O)O)C(O)C1O` (centres unmarked) [6e, 8-BuS-ATP], the “P2X-R effect: variation of perfusion pressure” value with P2X-purinoceptor is listed as “does not interact”; in the assay on P2X-purinoceptor (listed as 8-BuS-ATP), “not able to initiate any P2X-R effect; also recorded: No variations of perfusion pressure”. In addition, in the assay on rat astrocytes, the “effect on [Ca2+]i level” value is listed as “no effect”. Besides, the “agonism at P2Y1 receptor” value with P2Y1 receptor is “poor agonist”. Further, the entries for the “effect on vasodilatory response to ATP (P2Y-R)” value with P2Y-purinoceptor and with P2Y-purinoceptor (listed as 8-BuS-ATP) were “does not interact” and “unmodified; also recorded: No significant difference”, respectively.
Consider `CCCCNc1nc2c(N)ncnc2n1[C@@H]1O[C@H](COP(=O)(O)OP(=O)(O)OP(=O)(O)O)[C@@H](O)[C@H]1O` [compound 7, 8-BuNH-ATP], for which the “hydrolysis by NTPDase / resistance to hydrolysis” value at NTPDase [1] is “a level of hydrolysis”.
For the molecule `CCSc1nc2c(N)ncnc2n1[C@@H]1O[C@H](COP(=O)(O)OP(=O)(O)OP(=O)(O)O)[C@@H](O)[C@H]1O` [6c, 8-(Thioethyl)-adenosine 5′-triphosphate], the “hydrolysis by NTPDase / resistance to hydrolysis” value on NTPDase [1] is on record as “a level of hydrolysis”.
